According to patent publication US12403132B2, “Methods of treating bone marrow failure syndromes and compositions for use in the same” (The Board of Trustees of the Leland Stanford Junior …, priority 2020, dated 2025):

Assays:
Solubility = type: physicochemical; details: data not shown
NLK [1] = target: T1, NLK (Homo sapiens, UniProt Q9UBE8); test: Kinase Profiling of SD208; type: biochemical; details: 10 μM; data not shown
T1 sequence (Q9UBE8 1-527): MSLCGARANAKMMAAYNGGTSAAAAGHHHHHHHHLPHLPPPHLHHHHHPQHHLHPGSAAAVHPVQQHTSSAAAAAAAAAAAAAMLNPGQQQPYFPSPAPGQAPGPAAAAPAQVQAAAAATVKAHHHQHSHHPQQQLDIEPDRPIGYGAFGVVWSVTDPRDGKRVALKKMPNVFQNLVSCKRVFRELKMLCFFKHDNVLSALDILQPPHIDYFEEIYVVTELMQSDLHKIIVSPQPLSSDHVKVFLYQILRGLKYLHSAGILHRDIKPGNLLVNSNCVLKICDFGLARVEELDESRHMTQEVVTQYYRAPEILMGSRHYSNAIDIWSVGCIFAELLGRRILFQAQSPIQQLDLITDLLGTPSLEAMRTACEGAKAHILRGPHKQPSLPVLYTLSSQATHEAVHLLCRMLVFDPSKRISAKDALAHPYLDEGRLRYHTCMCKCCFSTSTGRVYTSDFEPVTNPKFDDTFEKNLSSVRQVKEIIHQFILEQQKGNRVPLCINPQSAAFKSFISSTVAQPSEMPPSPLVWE

NLK [2] = test: NLK expression and NLK activity in murine progenitors; type: cell-based, mouse; details: control, RPS19- or RPL11-insufficient mice, metformin
Text: FIG. 11. […] Statistics: two-tailed Student's t test, significant *P<0.05

[3] = system: BFU-E erythroid and CFU-GM myeloid colonies; test: Colony assays in methylcellulose (BFU-E, CFU-GM); type: cell-based, human; details: metformin
Protocol: FIG. 9. Metformin improves expansion of CD235+ erythroblasts and BFU-E erythroid colony formation in human RPS19- and RPL11-insufficiency from CB CD34+ progenitors. (Panel A). CD34+ HSPCs were transduced with shRNA against control (shLuc), RPS19 (shRPS19) or RPL11 (shRPL11) and after sorting, were differentiated for 14 days in the presence or absence of 50 mM metformin. Cells were counted and the percentage expressing CD235+ erythroid (left) and CD11b+ myeloid (right) was determined by flow cytometry. Obtained values were multiplied to give an overall number that was normalized to the untreated control (grey columns). Values are presented as a percentage of the untreated control. (Panel B) Direct comparison between metformin treated and untreated cultures is facilitated by normalizing the metformin-treated values to the untreated values in control, RPS19- and RPL11-insufficient groups. Values are expressed as a fold induction relative to untreated. (Panel C) Transduced and sorted CD34+ progenitors were cultured in methylcellulose in the presence or absence of metformin for 16 days and BFU-E erythroid (left) and CFU-GM myeloid (right) colonies scored. Values are represented as the percentage of colonies induced in untreated controls (grey columns). (Panel D). To directly compare the effect of metformin in each group, metformin-treated cultures were normalized to untreated cultures and are expressed as a fold induction of the untreated control. (Panel E) Representative images of BFU-E colonies at day 14.Scale bar=[…]. […] Statistics: two-tailed Student's t test, significant *P<0.05
Sorted hematopoietic cells were seeded in methylcellulose medium containing IL-3, stem cell factor, granulocyte macrophage colony-stimulating factor, and erythropoietin (H4434; […] Technologies) in triplicate, with 1000 cells per plate. Erythroid (burst-forming unit erythroid) and myeloid (colony-forming unit, granulocyte-macrophage) colonies were counted 14-18 days later. In some cases, 3000 (shRPL11) or 5000 (shRPS19+TGFβ) cells per plate were added to ensure enough colonies for robust statistical analysis.
Sorted HSPCs were seeded in cytokine-containing methylcellulose medium (H4434; […] Technologies) in triplicate, with 1000 cells per plate. Erythroid (burst-forming unit erythroid) and myeloid (colony-forming unit, granulocyte-macrophage) colonies were counted 14-18 days later.

human NLK 3′UTR = test: Luciferase fused to human NLK 3′UTR in K562 cells; type: cell-based
Protocol: FIG. 12. NLK 3′UTR facilitates metformin-mediated NLK suppression. (Panel A) K562 cells stabling expressing luciferase alone (top portion), luciferase expressed behind a minimal promoter and the NLK proximal promoter (2nd portion), luciferase immediately upstream of the human NLK 3′UTR (3rd portion) or luciferase with the SATB1 3′UTR (bottom portion) were grown in the presence of 0, 0.5, 5.0 or 50.0 mM of metformin for 72 hrs. Cell were pelleted and either processed for luciferase assay (left portion) or western blot analysis of endogenous NLK (upper right portion) or GAPDH (lower right portion). (Panel B) Luciferase immediately upstream of the human (upper), murine (middle) and zebrafish (lower) NLK 3′UTR were transiently transfected into human K562 (left) and cultured with indicated concentrations of metformin for 72 hrs. Lysates were assessed for luciferase activity and endogenous NLK and GAPDH protein expression by Western blotting. […] Statistics: two-tailed Student's t test, significant *P<0.05
FIG. 14. Metformin-mediated upregulation of miR-26a in human progenitors suppresses NLK expression. (Panel A) Human CD34+ (upper) and murine Lin-Kit+ (lower) progenitors were differentiated for 8 days in the presence or absence of metformin and the levels of indicated miRNAs were assessed by qRT-PCR. […] After lysis, luciferase activity was determined and endogenous NLK and GAPDH protein expression was analyzed by Western blot. […]
The NLK minimal promoter (1019 5′ nucleotides) and or NLK 3′UTR (1885 3′ nucleotides) were cloned upstream, or downstream respectively, of firefly luciferase and transfected into K562 cells. Transfection efficiency was normalized by RFP expression and firefly luciferase activity determined by Luciferase Assay Reagent II (LAR II) from Dual-Luciferase® Reporter (DLR™) Assay System (Promega). Luminescence was assessed using a Synergy™ H1 hybrid multi-mode microplate reader (BioTek®). […]

solubility (Solubility)	NLK kinase activity inhibited (NLK [1]) [%]	Structure (SMILES)	impact on NLK activity (NLK [2])	impact on NLK expression (NLK [2])	fold increase of BFU-E colonies ([3]; RPL11-insufficiency) [fold]	BFU-E erythroid colonies, % of vector control (shLuc) ([3]; RPL11-insufficiency, 8.2% untreated) [%]	fold increase of BFU-E colonies ([3]; RPS19-insufficiency) [fold]	BFU-E erythroid colonies, % of vector control (shLuc) ([3]; RPS19-insufficiency, 7.7% untreated) [%]	size of BFU-E colonies ([3]; RPS19-insufficient progenitors)	effect on CFU-GM colonies [3]	reduction of luciferase activity (wild-type human NLK 3′UTR) (human NLK 3′UTR; K562, miRNA mimetics or metformin, 72 hrs) [%]	decrease of luciferase (NLK 3′UTR fusion) (human NLK 3′UTR; stable K562, 50 mM metformin, 72 hrs) [%]	decrease of luciferase activity, human 3′UTR (human NLK 3′UTR; transient transfection in K562, metformin 72 hrs) [%]
poor solubility	96.8	Fc1ccc(Cl)cc1-c1nc(Nc2ccncc2)c2nccnc2n1 [SD208]	–	–	–	–	–	–	–	–	–	–	–
–	–	CN(C)C(=N)N=C(N)N [metformin]	no impact	no impact	2.2	14.3	2.9	16.3	only modestly improve	did not affect	72.5	67.5	65.4
